Data from PMC9505538, “P-Glycoprotein (MDR1/ABCB1) Restricts Brain Accumulation of the Novel EGFR Inhibitor EAI045 and Oral Elacridar Coadministration Enhances Its Brain Accumulation and Oral Exposure” (Pharmaceuticals, 2022).

What was measured:
human ABCB1 = target: T1, human ABCB1 (Homo sapiens, UniProt P08183); assay: Transepithelial transport of EAI045, MDCK-II cells transduced with human ABCB1; assay type: in vitro ADME; settings: for efflux ratio r (relative transport ratio): EAI045 5 μM
T1 construct: expressed in transfected cells; host or cells: MDCK-II cells, stably transduced, generated in the authors' institute
T1 sequence (P08183 whole entry): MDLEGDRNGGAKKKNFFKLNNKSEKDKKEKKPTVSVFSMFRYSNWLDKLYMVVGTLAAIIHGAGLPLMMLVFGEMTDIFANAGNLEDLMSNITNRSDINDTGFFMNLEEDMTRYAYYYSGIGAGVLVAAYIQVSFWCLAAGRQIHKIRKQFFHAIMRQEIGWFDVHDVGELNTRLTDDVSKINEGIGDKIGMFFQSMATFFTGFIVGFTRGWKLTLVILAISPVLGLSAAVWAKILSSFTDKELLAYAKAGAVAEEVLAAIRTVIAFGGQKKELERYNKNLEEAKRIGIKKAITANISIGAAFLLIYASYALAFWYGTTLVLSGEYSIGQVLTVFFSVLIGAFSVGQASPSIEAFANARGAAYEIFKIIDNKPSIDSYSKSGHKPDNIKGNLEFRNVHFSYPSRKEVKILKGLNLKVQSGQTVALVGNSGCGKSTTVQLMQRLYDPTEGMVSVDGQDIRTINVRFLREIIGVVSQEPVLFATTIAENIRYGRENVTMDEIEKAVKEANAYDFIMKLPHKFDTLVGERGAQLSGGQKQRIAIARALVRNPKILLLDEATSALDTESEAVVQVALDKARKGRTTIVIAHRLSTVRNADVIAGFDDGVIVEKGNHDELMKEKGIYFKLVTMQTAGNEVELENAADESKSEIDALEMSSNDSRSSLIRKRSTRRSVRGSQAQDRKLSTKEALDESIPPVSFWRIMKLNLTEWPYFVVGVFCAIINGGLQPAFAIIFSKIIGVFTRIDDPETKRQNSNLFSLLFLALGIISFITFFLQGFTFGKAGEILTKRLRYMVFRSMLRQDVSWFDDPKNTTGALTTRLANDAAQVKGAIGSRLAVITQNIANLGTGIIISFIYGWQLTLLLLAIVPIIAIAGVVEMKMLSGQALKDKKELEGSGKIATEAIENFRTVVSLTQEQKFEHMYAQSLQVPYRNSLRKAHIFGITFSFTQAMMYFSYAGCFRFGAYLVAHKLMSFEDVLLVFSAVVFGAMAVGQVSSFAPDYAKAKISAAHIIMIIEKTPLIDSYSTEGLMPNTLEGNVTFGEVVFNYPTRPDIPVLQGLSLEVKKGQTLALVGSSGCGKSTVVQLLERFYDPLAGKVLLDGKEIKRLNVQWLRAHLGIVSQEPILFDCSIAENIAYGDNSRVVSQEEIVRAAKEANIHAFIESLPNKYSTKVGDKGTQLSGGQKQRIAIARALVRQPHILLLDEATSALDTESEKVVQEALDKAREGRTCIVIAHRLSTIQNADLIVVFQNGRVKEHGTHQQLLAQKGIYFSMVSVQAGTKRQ
Protocol: Transport of EAI045 (5 μM) across epithelia was tested using cell layers of Madin–Darby Canine Kidney (MDCK-II) cells and derived clones expressing hABCB1, hABCG2, or mAbcg2 cDNA. […] In cells overexpressing hABCB1, there was clear transport of EAI045 in the apical direction (r = 5.5, Figure 1C). […] To evaluate the interaction between hABCG2 and mAbcg2 and EAI045, zosuquidar (5 μM) was added to inhibit any endogenous canine ABCB1. In cells overexpressing hABCG2, the BA transport of EAI045 was somewhat increased relative to the AB transport, resulting in an efflux ratio of 1.4 (Figure 1E).
Figure 1 In vitro transepithelial transport of EAI045 (5 μM) using MCDK-II parental cells (A,B) or transduced with human ABCB1 (C,D), human ABCG2 (E,F), or murine Abcg2 (G,H) cDNA. At t = 0 EAI045 was added in the donor compartment (either apical or basolateral). At 1, 2, and 4 h EAI045 was quantified in the acceptor compartment and the cumulative total transported amount per well was plotted (n = 3). Zosuquidar (5 μM) was added to inhibit the human and/or the endogenous ABCB1, while Ko143 (5 μM) was added to inhibit the human or murine ABCG2. r, relative transport ratio. […] Points, mean; bars, SD. TEXT PRINTED IN THE PICTURE: (A) no label printed: Parental: r = 1.7 | (B) no label printed: Parental + Zos.: r = 1.1 | (C) no label printed: hABCB1: r = 5.5 | (D) no label printed: hABCB1 + Zos.: r = 1.3 | (E) no label printed: hABCG2 + Zos.: r = 1.4 | (F) no label printed: hABCG2 + Zos. + Ko143: r = 1.1 | (G) no label printed: mAbcg2 + Zos.: r = 1.8 | (H) no label printed: mAbcg2 + Zos. + Ko143: r = 1.4
Madin–Darby Canine Kidney (MDCK-II) cells (ECACC 00062107) stably transduced with human (h) ABCB1, hABCG2, or mouse (m) Abcg2 cDNA were generated in our institute between 1998 and 2005. […] In short, cells were allowed to grow an intact monolayer in 3 days, which was monitored with transepithelial electrical resistance (TEER) measurements, both before and after the transport phase. […] Proper functionality of these cell lines was monitored by continual testing with a variety of drug substrates.

[1] = mouse, in vivo
Source text: Mice (Mus musculus) were bred in the Netherlands Cancer Institute and housed and handled according to institutional guidelines complying with Dutch and EU legislation. Animals used were WT, Abcb1a/1b^-/- [39], Abcg2^-/- [40], Abcb1a/1b;Abcg2^-/- [41], Cyp3a^-/- [42], and Oatp1a/1b^-/- [43] mice of a >99% FVB/N strain background. Homozygous CYP3A4 humanized transgenic mice (Cyp3aXAV) were generated by cross-breeding of transgenic mice with stable human CYP3A4 expression in the liver or intestine, respectively, in a Cyp3a^-/- background. Proper functionality of the knockout and transgenic strains was monitored by regular testing with a variety of drug substrates. All the mice used were between 10 and 15 weeks of age. Animals were kept in a temperature-controlled environment with a 12 h light/12 h dark cycle and received a standard diet (Transbreed, SDS Diets, Technilab-BMI, The Netherlands) and acidified water ad libitum. Depending on the type of experiment, 5 or 6 mice were tested in each experimental group. All experimental animal protocols, including power calculations, were ethically assessed and designed under the nationally approved DEC/CCD project AVD301002016595 (approval date, 10 August 2016) and evaluated and approved by the institutional animal care and use committee (IACUC) of the Netherlands Cancer Institute.
EAI045 was dissolved in dimethyl sulfoxide (DMSO) at a concentration of […], and then diluted with a mixture of polysorbate 80/ethanol (1:1, v/v), and further diluted with 5% (w/v) glucose in water to yield a concentration of 2 mg/mL. Final concentrations for DMSO, polysorbate 80, ethanol, and glucose in the dosing solution were 5%, 2.5%, 2.5%, and 4.5% (v/v/v/w), respectively. Elacridar hydrochloride was dissolved in DMSO at a concentration of 53 mg/mL, then diluted with a mixture of polysorbate 80, ethanol, and water [20:13:67, (v/v/v)] to yield a concentration of 5 mg/mL elacridar. The final oral dose of elacridar was 50 mg/kg body weight. All dosing solutions were prepared freshly on the day of experiment.
To minimize variation in absorption, mice were fasted for about 3 h before EAI045 was administered by gavage into the stomach (n = 5–6), using a blunt-ended needle. EAI045 was administered orally at dose of 20 mg/kg. Elacridar was administered orally at a dose of 50 mg/kg, 3 h prior to oral EAI045 administration. For the 24- or 4-h experiments, tail vein blood samplings were performed at 5 min, 30 min, 1, 2, 4, and 8 h, or 5 min, 15 min, 30 min, 1, and 2 h time points after oral administration of EAI045, respectively, using microvettes containing heparin. For the 30 min experiments, blood samplings were performed at 5, 10, and 20 min from the tail vein. At the last time point (24 h, 4 h, or 30 min), mice were anesthetized with isoflurane and blood was collected by cardiac puncture. Then, mice were sacrificed by cervical dislocation and brain, liver, spleen, kidneys, lung, small intestine with content (SIWC), and testis were rapidly removed and weighed. Tissues were homogenized on ice in appropriate volumes of 2% (w/v) BSA. Blood samples were centrifuged at 9000× g for 6 min at 4 °C immediately after collection. All samples were stored at −30 °C until analysis.

- efflux ratio r (relative transport ratio) (human ABCB1; hABCB1 + zosuquidar 5 μM): 1.3
- efflux ratio r (relative transport ratio) (human ABCB1; hABCB1, no inhibitor): 5.5
- transport substrate of hABCB1 (human ABCB1; in vitro): good transport substrate
- kidney-to-plasma ratio, fold change [1]: 1.6 fold
- systemic exposure of EAI045 ([1]; po, 20 mg/kg): not changed
Structure (SMILES): O=C(Nc1nccs1)C(c1cc(F)ccc1O)N1Cc2ccccc2C1=O (centres unmarked) [EAI045]
